The data set is described as follows: Half life in diluvial and volcanic ash soils under upland laboratory conditions. The format is physicochemical.

Structures are written as SMILES.

Consider 1 compound from ChEMBL document CHEMBL3045970, “Development of a New Acaricide, Fenpyroximate” (J Pestic Sci, 1995).

As to `Cc1nn(C)c(Oc2ccccc2)c1/C=N/OCc1ccc(C(=O)OC(C)(C)C)cc1` [FENPYROXYMATE], the t1/2 amounted to 26.3 days.
